Laboratory results published in patent publication US9617256B2 (priority 2007, dated 2017).
Converted amounts (≈) assume the structure as drawn. Read-outs that look alike come from different tables or passages of the source.

Columns and labels:
[1] = tested on: APAE001 (ATCC27853); assay: MIC broth microdilution, APAE001; type: cell-based, P. aeruginosa; conditions: Pseudomonas aeruginosa, ATCC27853, read-out: MIC APAE001, APAE001 (ATCC27853)
Method in brief: (§1)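 MICs come from broth microdilution in cation-adjusted Mueller-Hinton broth, final inoculum 3×10^5–7×10^5 CFU/mL, 18-24 hours at 35° C. Levofloxacin and QC strains served as assay controls.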

[2] = tested on: AECO063 (ATCC25922 bearing an acrAB mutation); assay: microbe, parasite or virus in culture; type: cell-based, E. coli; conditions: Escherichia coli, ATCC25922, read-out: MIC AECO063
Method in brief: as §1

[3] = tested on: AECO001 (ATCC25922); assay: MIC broth microdilution, AECO001; type: cell-based, E. coli; conditions: Escherichia coli
Method in brief: as §1

[4] = tested on: APAE006 (strain of P. aeruginosa in which all efflux pumps are inactivated); assay: microbe, parasite or virus in culture; type: cell-based; conditions: Pseudomonas aeruginosa, read-out: MIC APAE006, APAE006, all efflux pumps inactivated
Method in brief: (§2)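 Inocula prepared from 0.5 McFarland suspensions (final 3×10^5–7×10^5 CFU/mL) were added to 2-fold drug dilution series in cation-adjusted Mueller-Hinton broth. Plates stood 18-24 hours at 35° C. under ambient air.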

[5] = tested on: AABA1060 (clinical isolate of Acinetobacter baumannii); assay: MIC broth microdilution, AABA1060; type: cell-based; conditions: Acinetobacter baumannii, read-out: MIC AABA1060
Method in brief: as §1

[6] = tested on: APAE006 in the presence of 8 micrograms per milliliter of polymyxin B nonapeptide; type: cell-based, P. aeruginosa; conditions: APAE006 with 8 micrograms per milliliter polymyxin B nonapeptide
Method in brief: as §2

[7] = tested on: ASAU001 (laboratory strain of S. aureus, ATCC29213); assay: MIC broth microdilution, ASAU001; type: cell-based; conditions: Staphylococcus aureus, ATCC29213, read-out: MIC ASAU001
Method in brief: as §1

[8] = ATCC25922, read-out: MIC AECO001
[9] = ATCC25922, read-out: MIC AECO001 HSA AGP

Compound	MIC [1] [µg/mL]	MIC [2] [µg/mL]	MIC [3, 8] [µg/mL]	MIC [3, 9] [µg/mL]	MIC [4] [µg/mL]	MIC [5] [µg/mL]	MIC APAE006 + PMBN [6]	MIC [7] [µg/mL]
C[C@@H](N)[C@H](NC(=O)c1ccc(C#Cc2ccc(CNCC(F)(F)F)cc2)cc1)C(=O)NO [Example 137-16]	2 to 16 (≈ 4.46 to 35.7 µM)	< 2	< 2	2 to 16 (≈ 4.46 to 35.7 µM)	< 2	2 to 16 (≈ 4.46 to 35.7 µM)	A (MIC's of 2.0 μg/mL or less = A)	16 to 64 (≈ 35.7 to 143 µM)
C[C@@H](N)[C@H](NC(=O)c1ccc(C#CC(O)c2ccc(CN3CCOCC3)cc2)cc1)C(=O)NO (some centres unmarked) [Example 137-17]	16 to 64 (≈ 34.3 to 137 µM)	16 to 64 (≈ 34.3 to 137 µM)	16 to 64 (≈ 34.3 to 137 µM)	16 to 64 (≈ 34.3 to 137 µM)	2 to 16 (≈ 4.29 to 34.3 µM)	16 to 64 (≈ 34.3 to 137 µM)	A (MIC's of 2.0 μg/mL or less = A)	16 to 64 (≈ 34.3 to 137 µM)
C[C@@H](N)[C@H](NC(=O)c1ccc(C#CC(O)c2ccc(CO)cc2)cc1)C(=O)NO (some centres unmarked) [Example 137-18]	16 to 64 (≈ 40.3 to 161 µM)	16 to 64 (≈ 40.3 to 161 µM)	16 to 64 (≈ 40.3 to 161 µM)	16 to 64 (≈ 40.3 to 161 µM)	2 to 16 (≈ 5.03 to 40.3 µM)	16 to 64 (≈ 40.3 to 161 µM)	B (MIC's of greater than 2.0 μg/mL to 16.0 μg/mL = B)	16 to 64 (≈ 40.3 to 161 µM)
C[C@@H](O)[C@H](NC(=O)c1ccc(C#CC#Cc2ccncc2)cc1)C(=O)NO [Example 137-19]	2 to 16 (≈ 5.5 to 44 µM)	< 2	< 2	2 to 16 (≈ 5.5 to 44 µM)	< 2	16 to 64 (≈ 44 to 176 µM)	A (MIC's of 2.0 μg/mL or less = A)	16 to 64 (≈ 44 to 176 µM)
C[C@@H](N)[C@H](NC(=O)c1ccc(C#CC(O)c2ccccc2)cc1)C(=O)NO (some centres unmarked) [Example 137-20]	16 to 64 (≈ 43.5 to 174 µM)	16 to 64 (≈ 43.5 to 174 µM)	16 to 64 (≈ 43.5 to 174 µM)	16 to 64 (≈ 43.5 to 174 µM)	2 to 16 (≈ 5.44 to 43.5 µM)	2 to 16 (≈ 5.44 to 43.5 µM)	A (MIC's of 2.0 μg/mL or less = A)	16 to 64 (≈ 43.5 to 174 µM)
C[C@@H](N)[C@H](NC(=O)c1ccc(C#CC2CC2)cc1)C(=O)NO [Example 137-21]	2 to 16 (≈ 6.64 to 53.1 µM)	16 to 64 (≈ 53.1 to 212 µM)	16 to 64 (≈ 53.1 to 212 µM)	16 to 64 (≈ 53.1 to 212 µM)	< 2	2 to 16 (≈ 6.64 to 53.1 µM)	A (MIC's of 2.0 μg/mL or less = A)	16 to 64 (≈ 53.1 to 212 µM)
C[C@@H](N)[C@H](NC(=O)c1ccc(C#CC#CC2CCNCC2)cc1)C(=O)NO [Example 137-22]	2 to 16 (≈ 5.43 to 43.4 µM)	16 to 64 (≈ 43.4 to 174 µM)	16 to 64 (≈ 43.4 to 174 µM)	16 to 64 (≈ 43.4 to 174 µM)	2 to 16 (≈ 5.43 to 43.4 µM)	16 to 64 (≈ 43.4 to 174 µM)	B (MIC's of greater than 2.0 μg/mL to 16.0 μg/mL = B)	16 to 64 (≈ 43.4 to 174 µM)
CC(C)(N)[C@H](NC(=O)c1ccc(C#CC#CC2CCNCC2)cc1)C(=O)NO [Example 137-23]	2 to 16 (≈ 5.23 to 41.8 µM)	16 to 64 (≈ 41.8 to 167 µM)	16 to 64 (≈ 41.8 to 167 µM)	16 to 64 (≈ 41.8 to 167 µM)	< 2	16 to 64 (≈ 41.8 to 167 µM)	B (MIC's of greater than 2.0 μg/mL to 16.0 μg/mL = B)	16 to 64 (≈ 41.8 to 167 µM)
O=C(NC(C(=O)NO)C1(O)CC1)c1ccc(C#Cc2ccc(CN3CCOCC3)cc2)cc1 (centres unmarked) [Example 137-24]	2 to 16 (≈ 4.45 to 35.6 µM)	< 2	< 2	2 to 16 (≈ 4.45 to 35.6 µM)	< 2	2 to 16 (≈ 4.45 to 35.6 µM)	A (MIC's of 2.0 μg/mL or less = A)	16 to 64 (≈ 35.6 to 142 µM)
C[C@@H](N)[C@H](NC(=O)c1ccc(C#CC#CCCCO)cc1)C(=O)NO [Example 137-25]	16 to 64 (≈ 46.6 to 186 µM)	2 to 16 (≈ 5.82 to 46.6 µM)	16 to 64 (≈ 46.6 to 186 µM)	16 to 64 (≈ 46.6 to 186 µM)	< 2	16 to 64 (≈ 46.6 to 186 µM)	A (MIC's of 2.0 μg/mL or less = A)	16 to 64 (≈ 46.6 to 186 µM)
